Usually ΔTm stands for the change in melting temperature against a reference sample. Usually IC50 stands for the concentration that inhibits the measured activity by half.

The record followed here is ChEMBL document CHEMBL3817837, “Targeting epigenetic reader and eraser: Rational design, synthesis and in vitro evaluation of dimethylisoxazoles derivatives as BRD4/HDAC dual inhibitors” (Bioorg Med Chem Lett, 2016).

Assay [1] addresses Chromatin remodeling regulator CECR2 (Homo sapiens) (UniProt Q9BXF3). Put plainly: Binding affinity to human CECR2 expressed in Escherichia coli BL21(DE3)-R3-pRARE2 assessed as change in melting temperature at 25 uM by SYPRO orange based protein stability shift assay.
Assay [2] has as its target T1, Bromodomain-containing protein 4 (Homo sapiens, UniProt O60885). Put plainly: Inhibition of human BRD4 expressed in Escherichia coli BL21(DE3)-R3-pRARE2 by bromodomain alphascreen peptide displacement assay. (In general: Alpha assays give light when donor and acceptor beads are brought close together.)
The target in assay [3] is T2, Bromodomain-containing protein 9 (Homo sapiens) (UniProt Q9H8M2).
T2 sequence (whole entry): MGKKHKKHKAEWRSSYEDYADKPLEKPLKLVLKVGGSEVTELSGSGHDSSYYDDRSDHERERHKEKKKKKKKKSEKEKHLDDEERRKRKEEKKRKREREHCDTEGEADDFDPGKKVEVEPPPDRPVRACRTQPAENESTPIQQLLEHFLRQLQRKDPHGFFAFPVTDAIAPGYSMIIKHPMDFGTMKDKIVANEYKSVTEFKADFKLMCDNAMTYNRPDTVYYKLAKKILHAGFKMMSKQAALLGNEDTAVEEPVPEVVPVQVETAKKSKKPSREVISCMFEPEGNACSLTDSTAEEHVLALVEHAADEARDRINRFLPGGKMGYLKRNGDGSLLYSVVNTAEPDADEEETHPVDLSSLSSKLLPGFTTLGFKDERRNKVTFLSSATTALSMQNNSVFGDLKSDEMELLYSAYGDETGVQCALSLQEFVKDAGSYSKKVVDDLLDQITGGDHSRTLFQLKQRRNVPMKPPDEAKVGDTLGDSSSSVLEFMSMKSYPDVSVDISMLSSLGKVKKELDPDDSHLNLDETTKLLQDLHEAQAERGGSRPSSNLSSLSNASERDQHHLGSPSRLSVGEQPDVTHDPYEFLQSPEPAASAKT
Put plainly: Binding affinity to human BRD9 expressed in Escherichia coli BL21(DE3)-R3-pRARE2 assessed as change in melting temperature at 25 uM by SYPRO orange based protein stability shift assay.

The target in assay [4] is T1, Bromodomain-containing protein 4.
Description: Binding affinity to human BRD4 expressed in Escherichia coli BL21(DE3)-R3-pRARE2 assessed as change in melting temperature at 25 uM by SYPRO orange based protein stability shift assay
Assay [5] concerns the target Transcription initiation factor TFIID subunit 1 (Homo sapiens) (UniProt P21675). Nature of the assay: Binding affinity to human TAF1 expressed in Escherichia coli BL21(DE3)-R3-pRARE2 assessed as change in melting temperature at 25 uM by SYPRO orange based protein stability shift assay.
In the next assay the target is Histone deacetylase 1 (Homo sapiens, UniProt Q13547). Put plainly: Inhibition of recombinant HDAC1 (unknown origin) using of Fluor-de-Lys substrate incubated for 10 mins by fluorimetric assay.
Histone deacetylase 1, sequence (Q13547 whole entry): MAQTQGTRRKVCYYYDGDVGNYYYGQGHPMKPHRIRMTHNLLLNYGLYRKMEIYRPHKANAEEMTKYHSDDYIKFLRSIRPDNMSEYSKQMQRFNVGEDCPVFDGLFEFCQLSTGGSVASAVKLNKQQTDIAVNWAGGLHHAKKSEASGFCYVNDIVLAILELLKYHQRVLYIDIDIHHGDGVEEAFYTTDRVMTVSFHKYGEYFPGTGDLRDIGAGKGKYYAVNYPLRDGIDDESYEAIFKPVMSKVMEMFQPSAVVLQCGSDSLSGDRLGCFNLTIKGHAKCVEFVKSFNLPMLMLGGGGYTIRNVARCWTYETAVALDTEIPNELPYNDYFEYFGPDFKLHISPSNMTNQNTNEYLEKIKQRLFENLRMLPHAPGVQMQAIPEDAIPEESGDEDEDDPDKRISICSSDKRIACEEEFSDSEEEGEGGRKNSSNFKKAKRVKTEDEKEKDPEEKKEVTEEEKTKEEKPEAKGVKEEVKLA
Assay [6] concerns the target Histone acetyltransferase KAT2B (Homo sapiens) (UniProt Q92831). Put plainly: Binding affinity to human PCAF expressed in Escherichia coli BL21(DE3)-R3-pRARE2 assessed as change in melting temperature at 25 uM by SYPRO orange based protein stability shift assay.
Assay [7] addresses CREB-binding protein (Homo sapiens) (UniProt Q92793). Put plainly: Binding affinity to human CREBBP expressed in Escherichia coli BL21(DE3)-R3-pRARE2 assessed as change in melting temperature at 25 uM by SYPRO orange based protein stability shift assay.
For the next assay, the system named is K562. Nature of the assay: Antiproliferative activity against human K562 cells assessed as reduction in cell viability incubated for 72 hrs by Alamar blue assay. Type of assay: functional, cell-based. The note with it: K562, 72 h. For orientation: Resazurin is reduced to fluorescent resorufin, in cell work by metabolically active cells.
For the next assay, the system named is MV4-11. Put plainly: Antiproliferative activity against human MV4-11 cells assessed as reduction in cell viability incubated for 72 hrs by Alamar blue assay. Type of assay: functional, cell-based. The conditions noted are these: MV4-11, 72 h.

Histone acetyltransferase KAT2B (Homo sapiens), sequence (Q92831 whole entry, looked up): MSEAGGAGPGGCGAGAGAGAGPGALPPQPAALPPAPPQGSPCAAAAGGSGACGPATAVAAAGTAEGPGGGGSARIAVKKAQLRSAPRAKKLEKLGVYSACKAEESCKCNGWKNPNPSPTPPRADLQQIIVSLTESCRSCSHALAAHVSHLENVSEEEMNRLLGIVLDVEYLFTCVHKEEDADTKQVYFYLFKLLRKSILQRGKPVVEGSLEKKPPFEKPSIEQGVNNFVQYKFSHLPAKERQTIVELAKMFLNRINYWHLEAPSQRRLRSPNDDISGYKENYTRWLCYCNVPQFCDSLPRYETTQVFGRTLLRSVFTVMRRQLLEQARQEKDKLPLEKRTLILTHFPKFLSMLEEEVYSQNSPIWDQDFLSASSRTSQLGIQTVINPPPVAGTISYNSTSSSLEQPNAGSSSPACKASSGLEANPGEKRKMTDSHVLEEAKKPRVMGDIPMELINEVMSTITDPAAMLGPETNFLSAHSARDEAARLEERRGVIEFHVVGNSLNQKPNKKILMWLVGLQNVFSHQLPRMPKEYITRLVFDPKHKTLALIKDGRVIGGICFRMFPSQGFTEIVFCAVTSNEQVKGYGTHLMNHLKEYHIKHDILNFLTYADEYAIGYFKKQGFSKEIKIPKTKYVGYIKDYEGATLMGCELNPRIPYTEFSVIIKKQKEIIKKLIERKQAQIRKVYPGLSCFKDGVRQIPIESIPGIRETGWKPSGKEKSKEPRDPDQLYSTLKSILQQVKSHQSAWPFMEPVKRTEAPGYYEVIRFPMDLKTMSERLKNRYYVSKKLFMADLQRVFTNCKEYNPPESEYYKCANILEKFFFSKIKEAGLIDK
CREB-binding protein (Homo sapiens), sequence (Q92793 2-2442 limits assumed): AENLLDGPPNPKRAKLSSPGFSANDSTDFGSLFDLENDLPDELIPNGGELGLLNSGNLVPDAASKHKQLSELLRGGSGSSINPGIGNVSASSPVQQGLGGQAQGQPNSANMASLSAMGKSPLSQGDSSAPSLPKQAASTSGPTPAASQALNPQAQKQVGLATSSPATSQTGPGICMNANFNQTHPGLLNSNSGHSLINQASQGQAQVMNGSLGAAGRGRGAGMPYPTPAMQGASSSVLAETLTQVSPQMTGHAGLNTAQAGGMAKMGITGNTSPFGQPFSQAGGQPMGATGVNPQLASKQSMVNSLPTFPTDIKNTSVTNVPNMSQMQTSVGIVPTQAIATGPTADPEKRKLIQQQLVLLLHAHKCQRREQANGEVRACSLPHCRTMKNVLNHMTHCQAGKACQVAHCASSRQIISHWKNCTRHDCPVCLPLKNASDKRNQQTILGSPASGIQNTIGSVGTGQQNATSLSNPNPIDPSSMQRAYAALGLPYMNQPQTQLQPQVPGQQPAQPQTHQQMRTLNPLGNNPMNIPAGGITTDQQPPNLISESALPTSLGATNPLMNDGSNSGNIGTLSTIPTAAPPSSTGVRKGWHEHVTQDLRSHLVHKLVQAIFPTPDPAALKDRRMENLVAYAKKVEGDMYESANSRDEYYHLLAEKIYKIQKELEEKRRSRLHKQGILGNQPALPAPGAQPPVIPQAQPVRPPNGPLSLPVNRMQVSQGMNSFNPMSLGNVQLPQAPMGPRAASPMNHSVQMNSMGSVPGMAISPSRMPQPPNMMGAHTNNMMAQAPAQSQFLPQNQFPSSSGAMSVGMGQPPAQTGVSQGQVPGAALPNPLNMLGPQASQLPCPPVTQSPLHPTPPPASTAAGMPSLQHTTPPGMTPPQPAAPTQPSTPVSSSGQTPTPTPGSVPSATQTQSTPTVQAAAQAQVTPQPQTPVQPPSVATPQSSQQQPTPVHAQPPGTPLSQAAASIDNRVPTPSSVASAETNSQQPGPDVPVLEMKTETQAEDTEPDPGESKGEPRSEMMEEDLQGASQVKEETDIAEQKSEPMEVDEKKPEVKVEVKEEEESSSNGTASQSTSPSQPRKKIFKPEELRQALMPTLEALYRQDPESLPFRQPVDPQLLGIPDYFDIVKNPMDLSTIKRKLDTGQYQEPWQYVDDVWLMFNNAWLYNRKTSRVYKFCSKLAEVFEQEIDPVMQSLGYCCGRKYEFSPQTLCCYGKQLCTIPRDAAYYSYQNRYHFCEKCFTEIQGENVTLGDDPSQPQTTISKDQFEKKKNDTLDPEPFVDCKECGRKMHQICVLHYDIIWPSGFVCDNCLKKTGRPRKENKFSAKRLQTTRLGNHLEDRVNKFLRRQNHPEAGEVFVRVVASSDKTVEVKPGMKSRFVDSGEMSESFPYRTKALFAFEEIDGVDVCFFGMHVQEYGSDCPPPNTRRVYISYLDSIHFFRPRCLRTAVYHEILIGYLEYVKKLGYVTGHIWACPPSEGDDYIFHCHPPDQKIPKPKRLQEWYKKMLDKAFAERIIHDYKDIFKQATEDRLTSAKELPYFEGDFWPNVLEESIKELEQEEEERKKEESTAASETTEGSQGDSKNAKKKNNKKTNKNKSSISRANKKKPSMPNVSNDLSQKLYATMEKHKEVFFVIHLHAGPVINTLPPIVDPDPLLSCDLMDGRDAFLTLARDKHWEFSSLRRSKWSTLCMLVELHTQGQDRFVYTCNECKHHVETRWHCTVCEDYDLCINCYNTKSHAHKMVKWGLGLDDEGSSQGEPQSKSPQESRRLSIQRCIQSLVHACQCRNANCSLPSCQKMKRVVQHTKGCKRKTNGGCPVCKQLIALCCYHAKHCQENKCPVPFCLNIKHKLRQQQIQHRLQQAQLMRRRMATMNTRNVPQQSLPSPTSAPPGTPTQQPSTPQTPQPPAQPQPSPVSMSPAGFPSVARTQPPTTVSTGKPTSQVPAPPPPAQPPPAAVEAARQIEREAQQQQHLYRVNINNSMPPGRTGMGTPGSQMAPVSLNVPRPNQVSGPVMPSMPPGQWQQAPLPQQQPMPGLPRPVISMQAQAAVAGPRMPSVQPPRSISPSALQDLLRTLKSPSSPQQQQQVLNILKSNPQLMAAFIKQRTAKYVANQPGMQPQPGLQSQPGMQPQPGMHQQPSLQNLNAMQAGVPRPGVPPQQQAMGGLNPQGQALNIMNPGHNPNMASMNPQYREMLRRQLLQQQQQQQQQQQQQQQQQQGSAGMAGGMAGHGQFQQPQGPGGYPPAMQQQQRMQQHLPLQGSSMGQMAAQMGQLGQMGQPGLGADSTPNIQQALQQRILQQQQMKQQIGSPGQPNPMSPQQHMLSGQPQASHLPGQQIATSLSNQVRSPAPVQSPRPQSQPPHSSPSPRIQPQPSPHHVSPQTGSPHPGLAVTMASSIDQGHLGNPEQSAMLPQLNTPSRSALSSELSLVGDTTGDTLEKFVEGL

On to `Cc1noc(C)c1-c1cc(OCCCCCC(=O)NO)cc(C(=O)c2ccccc2)c1`, for which the ΔTm worked out at 1.18 °C in assay [1]; 1.56 °C in assay [3]; 7.54 °C in assay [4]; 1.69 °C in [5]; 0.28 °C in [6]; 1.69 °C in assay [7]. For the same molecule, the IC50 in assay [2] was 1380 nM; at Histone deacetylase 1 it was 1490 nM.

Take `Cc1noc(C)c1-c1cc(NC(=O)CCCCCC(=O)NO)cc(C(=O)c2ccccc2)c1`: the IC50 in the assay on K562 was determined as 2330 nM; in assay [2], 850 nM; in the assay with MV4-11, 1040 nM; on Histone deacetylase 1, 270 nM. The ΔTm in [1] was found to be 1.52 °C; in assay [3], 2.26 °C; in assay [4], 6.37 °C; in [5], 1.76 °C; in [6], 0.92 °C; in assay [7], 2.32 °C.

On to `Cc1noc(C)c1-c1cc(OCCCCC(=O)NO)cc(C(=O)c2ccccc2)c1`, for which the IC50 turned out to be 1490 nM in assay [2] and 5450 nM at Histone deacetylase 1. For the same molecule, the ΔTm is -0.75 °C in assay [3]; 5.89 °C in assay [4]; 1.14 °C in assay [5]; -7.9 °C in [6]; -0.01 °C in [7].

For `O=C(CCCCCCC(=O)Nc1ccccc1)NO` [VORINOSTAT], the IC50 in the assay with K562 was found to be 170 nM.

Consider `Cc1noc(C)c1-c1cccc(NC(=O)CCCCCC(=O)NO)c1`, for which the ΔTm is 0.64 °C in [1]; -0.13 °C in assay [3]; 3.58 °C in assay [4]; 1.08 °C in assay [5]; 0.05 °C in assay [6]; 0.73 °C in [7]. Further, the IC50 amounted to 3730 nM in assay [2] and 360 nM at Histone deacetylase 1.

`Cc1noc(C)c1-c1cc(OCCCCCCC(=O)NO)cc(C(=O)c2ccccc2)c1`: the IC50 in [2] amounted to 1050 nM; at Histone deacetylase 1, 1430 nM. In addition, the ΔTm in [3] amounted to 1.72 °C; in assay [4], 7.41 °C; in assay [5] it was 2.22 °C; in assay [6] it was 1.04 °C; in [7], 2.13 °C.

With `Cc1sc2c(c1C)C(c1ccc(Cl)cc1)=N[C@@H](CC(=O)OC(C)(C)C)c1nnc(C)n1-2` (racemic), the IC50 turned out to be 640 nM in the assay on K562 and 240 nM with MV4-11.

For the molecule `Cc1noc(C)c1-c1cc(NC(=O)CCCCC(=O)NO)cc(C(=O)c2ccccc2)c1`, the ΔTm in assay [1] turned out to be 1.65 °C; in [3], 2.79 °C; in assay [4], 6.21 °C; in assay [5], 1.95 °C; in assay [6] it was 0.31 °C; in assay [7], 2.05 °C. Moreover, the IC50 is 780 nM in assay [2] and 760 nM on Histone deacetylase 1.

Regarding `Cc1noc(C)c1-c1cc(NC(=O)CCCCCCC(=O)NO)cc(C(=O)c2ccccc2)c1`, the IC50 with K562 worked out at 1860 nM; in assay [2], 670 nM; with MV4-11, 910 nM; at Histone deacetylase 1, 150 nM. Moreover, the ΔTm in assay [1] was 1.96 °C; in assay [3], 2.97 °C; in [4] it was 7.49 °C; in assay [5], 2.22 °C; in assay [6], 1.35 °C; in assay [7], 3.24 °C.

As to `Cc1noc(C)c1-c1cc(OCCCCCCCC(=O)NO)cc(C(=O)c2ccccc2)c1`, the ΔTm in assay [1] was 2.06 °C; in [3] it was 1.22 °C; in [4], 4.91 °C; in [5], 1.77 °C; in [6], -0.31 °C; in [7], 0.65 °C. Further, the IC50 in assay [2] was 2990 nM; at Histone deacetylase 1, 1740 nM.

Consider `Cc1noc(C)c1-c1cc(OCCCCCCC(=O)NO)cc(C(O)c2ccccc2)c1` (configuration not stated), for which the ΔTm amounted to 1.32 °C in [1]; 1.55 °C in assay [3]; 7.53 °C in [4]; 1.72 °C in assay [5]; 0.35 °C in assay [6]; 4.03 °C in [7]. The IC50 in assay [2] is 770 nM; at Histone deacetylase 1 it was 970 nM.
